Results published in publication doi:10.1101/2024.08.13.607785v1 (biorxiv, 2024).

How the values were obtained:
Design in all cases: species or system mixed lysate of K562, MV4-11, THP-1, NCI-H1155
[1] = molecular target: Mitogen-activated protein kinase kinase kinase 4 ; MAP3K4 ; Q9Y6R4 (Homo sapiens, UniProt Q9Y6R4); conditions: binder
[2] = molecular target: Receptor-interacting serine/threonine-protein kinase 2 ; RIPK2 ; O43353 (Homo sapiens, UniProt O43353); conditions: DDA-MS residual binding; binder
[3] = molecular target: T1, Cyclin-G-associated kinase ; GAK ; O14976 (Homo sapiens, UniProt O14976); conditions: DDA-MS residual binding; binder
T1 sequence (O14976 1-1311): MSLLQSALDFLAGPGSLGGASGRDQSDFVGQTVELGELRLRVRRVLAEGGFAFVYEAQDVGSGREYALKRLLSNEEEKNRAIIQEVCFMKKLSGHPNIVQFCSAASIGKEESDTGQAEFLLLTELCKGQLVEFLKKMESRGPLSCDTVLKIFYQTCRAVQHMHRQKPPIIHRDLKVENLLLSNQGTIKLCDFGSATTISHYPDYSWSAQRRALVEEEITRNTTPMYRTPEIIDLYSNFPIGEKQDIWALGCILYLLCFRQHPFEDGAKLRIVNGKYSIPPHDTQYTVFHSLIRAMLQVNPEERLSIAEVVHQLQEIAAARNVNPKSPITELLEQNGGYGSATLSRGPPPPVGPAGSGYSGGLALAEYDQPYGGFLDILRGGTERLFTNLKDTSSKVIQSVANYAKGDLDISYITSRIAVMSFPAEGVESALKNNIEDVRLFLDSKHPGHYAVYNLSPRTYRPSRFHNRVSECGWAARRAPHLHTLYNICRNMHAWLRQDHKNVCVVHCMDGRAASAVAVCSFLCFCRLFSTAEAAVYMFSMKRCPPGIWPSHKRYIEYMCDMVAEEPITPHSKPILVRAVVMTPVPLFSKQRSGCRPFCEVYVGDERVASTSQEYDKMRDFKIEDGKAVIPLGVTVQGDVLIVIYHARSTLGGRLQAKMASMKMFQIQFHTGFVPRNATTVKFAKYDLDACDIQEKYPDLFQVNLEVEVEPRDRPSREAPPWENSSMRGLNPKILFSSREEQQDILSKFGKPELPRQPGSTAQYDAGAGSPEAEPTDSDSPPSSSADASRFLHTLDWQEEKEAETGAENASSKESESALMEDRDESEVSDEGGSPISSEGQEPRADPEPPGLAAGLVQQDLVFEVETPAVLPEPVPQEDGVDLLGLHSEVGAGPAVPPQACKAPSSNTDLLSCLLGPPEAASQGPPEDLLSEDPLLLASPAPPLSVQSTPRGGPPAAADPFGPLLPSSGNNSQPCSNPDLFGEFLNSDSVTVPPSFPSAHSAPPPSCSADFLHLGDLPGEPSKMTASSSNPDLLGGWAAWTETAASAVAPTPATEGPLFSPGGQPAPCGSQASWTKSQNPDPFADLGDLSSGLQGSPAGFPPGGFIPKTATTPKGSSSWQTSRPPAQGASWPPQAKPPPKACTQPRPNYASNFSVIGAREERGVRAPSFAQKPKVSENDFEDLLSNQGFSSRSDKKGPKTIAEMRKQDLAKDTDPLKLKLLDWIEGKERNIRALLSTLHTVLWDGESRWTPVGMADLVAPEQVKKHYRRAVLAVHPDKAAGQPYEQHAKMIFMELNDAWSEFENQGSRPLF

[4] = molecular target: Epithelial discoidin domain-containing receptor 1 ; DDR1 ; Q08345 (Homo sapiens, UniProt Q08345); conditions: binder
[5] = molecular target: Ephrin type-A receptor 5 ; EPHA5 ; P54756 (Homo sapiens, UniProt P54756); conditions: DDA-MS residual binding; binder
[6] = molecular target: T2, Tyrosine-protein kinase Tec ; TEC ; P42680 (Homo sapiens, UniProt P42680); conditions: binder
T2 sequence (P42680 1-631): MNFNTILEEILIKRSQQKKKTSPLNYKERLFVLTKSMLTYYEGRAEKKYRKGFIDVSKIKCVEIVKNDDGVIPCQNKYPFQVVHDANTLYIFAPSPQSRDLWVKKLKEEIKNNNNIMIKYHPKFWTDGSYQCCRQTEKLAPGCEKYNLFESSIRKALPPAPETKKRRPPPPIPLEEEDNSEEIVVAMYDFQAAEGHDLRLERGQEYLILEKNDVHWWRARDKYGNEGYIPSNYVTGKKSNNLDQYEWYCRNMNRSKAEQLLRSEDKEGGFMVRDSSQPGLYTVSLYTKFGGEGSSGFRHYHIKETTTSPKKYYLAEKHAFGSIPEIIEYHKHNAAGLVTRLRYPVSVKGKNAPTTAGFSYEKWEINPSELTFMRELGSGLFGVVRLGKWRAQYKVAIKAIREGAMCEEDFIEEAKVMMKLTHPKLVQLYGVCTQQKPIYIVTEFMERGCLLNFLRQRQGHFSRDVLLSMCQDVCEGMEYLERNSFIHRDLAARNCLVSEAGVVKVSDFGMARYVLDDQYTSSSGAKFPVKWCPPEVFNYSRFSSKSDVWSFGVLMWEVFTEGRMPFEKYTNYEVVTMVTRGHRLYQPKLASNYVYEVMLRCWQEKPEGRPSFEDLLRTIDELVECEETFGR

[7] = molecular target: Tyrosine-protein kinase HCK ; HCK ; P08631 (Homo sapiens, UniProt P08631); conditions: DDA-MS residual binding; binder
Tyrosine-protein kinase HCK ; HCK ; P08631, sequence (P08631 whole entry): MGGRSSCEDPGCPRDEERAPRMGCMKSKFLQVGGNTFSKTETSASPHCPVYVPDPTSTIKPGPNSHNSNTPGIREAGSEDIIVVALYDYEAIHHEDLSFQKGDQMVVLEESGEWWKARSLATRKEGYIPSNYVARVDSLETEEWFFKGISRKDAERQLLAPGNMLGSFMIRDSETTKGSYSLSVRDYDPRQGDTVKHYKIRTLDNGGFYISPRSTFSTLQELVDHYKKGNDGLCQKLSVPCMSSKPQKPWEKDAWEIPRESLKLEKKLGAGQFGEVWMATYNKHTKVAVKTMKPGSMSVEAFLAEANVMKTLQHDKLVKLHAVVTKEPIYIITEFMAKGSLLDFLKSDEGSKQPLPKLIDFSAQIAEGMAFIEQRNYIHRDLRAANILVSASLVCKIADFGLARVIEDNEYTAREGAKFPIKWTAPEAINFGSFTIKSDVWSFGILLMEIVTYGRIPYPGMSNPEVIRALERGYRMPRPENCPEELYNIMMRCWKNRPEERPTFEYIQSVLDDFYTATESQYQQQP

Ephrin type-A receptor 5 ; EPHA5 ; P54756, sequence (P54756 whole entry): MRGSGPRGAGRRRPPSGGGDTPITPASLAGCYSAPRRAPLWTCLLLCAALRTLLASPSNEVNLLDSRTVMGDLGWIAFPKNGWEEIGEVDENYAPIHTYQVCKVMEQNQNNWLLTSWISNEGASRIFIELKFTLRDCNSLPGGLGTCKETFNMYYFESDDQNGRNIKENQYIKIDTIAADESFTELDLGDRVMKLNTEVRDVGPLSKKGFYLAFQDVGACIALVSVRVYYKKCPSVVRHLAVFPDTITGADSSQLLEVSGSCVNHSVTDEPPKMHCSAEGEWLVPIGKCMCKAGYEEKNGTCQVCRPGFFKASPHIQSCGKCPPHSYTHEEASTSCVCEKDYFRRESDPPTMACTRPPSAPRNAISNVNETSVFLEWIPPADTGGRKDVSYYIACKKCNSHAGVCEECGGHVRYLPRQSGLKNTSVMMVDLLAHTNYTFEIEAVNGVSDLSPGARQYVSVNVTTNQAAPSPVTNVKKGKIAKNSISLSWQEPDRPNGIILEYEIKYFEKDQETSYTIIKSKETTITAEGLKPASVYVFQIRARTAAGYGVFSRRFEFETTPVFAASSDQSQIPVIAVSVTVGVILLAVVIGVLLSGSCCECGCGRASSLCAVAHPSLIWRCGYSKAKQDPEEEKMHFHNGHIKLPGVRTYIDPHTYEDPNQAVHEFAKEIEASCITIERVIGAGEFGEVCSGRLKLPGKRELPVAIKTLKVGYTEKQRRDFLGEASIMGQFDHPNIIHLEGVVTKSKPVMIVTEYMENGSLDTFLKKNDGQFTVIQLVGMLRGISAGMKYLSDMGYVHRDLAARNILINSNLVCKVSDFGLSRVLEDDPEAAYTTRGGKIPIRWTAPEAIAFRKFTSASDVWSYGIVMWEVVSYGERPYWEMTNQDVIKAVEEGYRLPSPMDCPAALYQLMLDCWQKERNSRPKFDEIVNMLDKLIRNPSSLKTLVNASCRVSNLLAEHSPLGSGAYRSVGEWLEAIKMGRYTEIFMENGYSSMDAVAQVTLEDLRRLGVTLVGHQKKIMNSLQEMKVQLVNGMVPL
Epithelial discoidin domain-containing receptor 1 ; DDR1 ; Q08345, sequence (Q08345 whole entry, the tested form may be a part): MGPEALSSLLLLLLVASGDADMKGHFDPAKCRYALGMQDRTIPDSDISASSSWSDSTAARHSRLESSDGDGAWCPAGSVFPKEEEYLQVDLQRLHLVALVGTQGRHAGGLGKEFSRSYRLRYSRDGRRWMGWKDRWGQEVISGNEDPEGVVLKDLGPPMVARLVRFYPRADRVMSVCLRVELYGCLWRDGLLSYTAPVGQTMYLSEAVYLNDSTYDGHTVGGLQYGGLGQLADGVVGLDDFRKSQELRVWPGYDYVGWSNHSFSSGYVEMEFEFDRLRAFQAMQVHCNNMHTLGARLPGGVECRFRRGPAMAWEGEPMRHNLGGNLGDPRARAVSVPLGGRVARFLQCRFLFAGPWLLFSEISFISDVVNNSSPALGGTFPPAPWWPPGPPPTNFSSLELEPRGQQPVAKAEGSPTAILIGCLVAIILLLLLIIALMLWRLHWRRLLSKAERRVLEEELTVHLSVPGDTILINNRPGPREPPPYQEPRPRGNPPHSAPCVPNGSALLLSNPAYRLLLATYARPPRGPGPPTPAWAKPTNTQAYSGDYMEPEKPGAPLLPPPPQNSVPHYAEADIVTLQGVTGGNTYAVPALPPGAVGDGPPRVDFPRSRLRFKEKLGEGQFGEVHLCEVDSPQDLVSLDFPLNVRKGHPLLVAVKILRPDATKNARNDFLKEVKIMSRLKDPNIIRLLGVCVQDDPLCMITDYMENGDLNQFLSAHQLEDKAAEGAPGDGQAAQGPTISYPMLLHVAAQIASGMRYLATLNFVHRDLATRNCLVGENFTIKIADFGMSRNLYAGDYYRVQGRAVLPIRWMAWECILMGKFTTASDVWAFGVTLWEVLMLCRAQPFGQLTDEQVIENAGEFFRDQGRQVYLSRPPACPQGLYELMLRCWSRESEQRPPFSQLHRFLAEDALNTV
Mitogen-activated protein kinase kinase kinase 4 ; MAP3K4 ; Q9Y6R4, sequence (Q9Y6R4 whole entry): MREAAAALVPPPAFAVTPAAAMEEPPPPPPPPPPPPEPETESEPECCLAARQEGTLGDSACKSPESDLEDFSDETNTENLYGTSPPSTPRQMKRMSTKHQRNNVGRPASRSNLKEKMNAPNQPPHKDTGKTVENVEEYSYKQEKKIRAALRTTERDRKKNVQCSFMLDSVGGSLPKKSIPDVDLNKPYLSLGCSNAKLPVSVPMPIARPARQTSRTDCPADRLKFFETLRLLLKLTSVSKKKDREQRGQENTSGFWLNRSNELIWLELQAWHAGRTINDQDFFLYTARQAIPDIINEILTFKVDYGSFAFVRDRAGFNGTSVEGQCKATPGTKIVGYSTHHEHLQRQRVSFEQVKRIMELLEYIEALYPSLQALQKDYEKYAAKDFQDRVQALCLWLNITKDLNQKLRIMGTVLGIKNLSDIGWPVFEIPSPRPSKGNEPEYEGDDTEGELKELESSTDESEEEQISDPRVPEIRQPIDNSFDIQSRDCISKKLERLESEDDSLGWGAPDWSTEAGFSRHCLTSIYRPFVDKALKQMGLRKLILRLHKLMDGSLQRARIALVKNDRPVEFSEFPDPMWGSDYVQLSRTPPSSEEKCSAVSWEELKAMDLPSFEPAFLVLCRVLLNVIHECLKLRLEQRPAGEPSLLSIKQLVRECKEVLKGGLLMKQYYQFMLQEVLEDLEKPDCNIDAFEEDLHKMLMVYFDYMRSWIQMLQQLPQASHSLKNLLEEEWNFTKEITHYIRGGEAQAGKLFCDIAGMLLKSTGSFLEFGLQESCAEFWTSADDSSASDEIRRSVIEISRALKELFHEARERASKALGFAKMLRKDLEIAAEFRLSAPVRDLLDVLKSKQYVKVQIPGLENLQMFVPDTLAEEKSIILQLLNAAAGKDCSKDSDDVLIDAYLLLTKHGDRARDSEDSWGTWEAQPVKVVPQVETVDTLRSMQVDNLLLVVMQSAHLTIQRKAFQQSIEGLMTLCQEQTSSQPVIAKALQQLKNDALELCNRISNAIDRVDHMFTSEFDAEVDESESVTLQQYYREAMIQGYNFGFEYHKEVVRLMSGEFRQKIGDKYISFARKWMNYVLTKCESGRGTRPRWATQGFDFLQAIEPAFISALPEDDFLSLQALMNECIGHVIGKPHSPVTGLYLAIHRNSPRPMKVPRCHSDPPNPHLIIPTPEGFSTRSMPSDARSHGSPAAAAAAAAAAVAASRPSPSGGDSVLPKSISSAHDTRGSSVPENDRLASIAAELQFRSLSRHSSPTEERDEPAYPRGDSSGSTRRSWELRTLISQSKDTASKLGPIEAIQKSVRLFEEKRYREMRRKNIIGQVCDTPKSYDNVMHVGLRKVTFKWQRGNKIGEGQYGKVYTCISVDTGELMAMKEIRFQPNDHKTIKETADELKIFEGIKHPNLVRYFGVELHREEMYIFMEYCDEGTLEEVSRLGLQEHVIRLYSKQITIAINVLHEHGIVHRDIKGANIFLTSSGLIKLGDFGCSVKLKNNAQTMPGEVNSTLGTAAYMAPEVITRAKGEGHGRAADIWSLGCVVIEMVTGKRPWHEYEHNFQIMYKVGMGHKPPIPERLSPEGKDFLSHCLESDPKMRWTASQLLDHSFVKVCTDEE
Receptor-interacting serine/threonine-protein kinase 2 ; RIPK2 ; O43353, sequence (O43353 whole entry, one chain of several): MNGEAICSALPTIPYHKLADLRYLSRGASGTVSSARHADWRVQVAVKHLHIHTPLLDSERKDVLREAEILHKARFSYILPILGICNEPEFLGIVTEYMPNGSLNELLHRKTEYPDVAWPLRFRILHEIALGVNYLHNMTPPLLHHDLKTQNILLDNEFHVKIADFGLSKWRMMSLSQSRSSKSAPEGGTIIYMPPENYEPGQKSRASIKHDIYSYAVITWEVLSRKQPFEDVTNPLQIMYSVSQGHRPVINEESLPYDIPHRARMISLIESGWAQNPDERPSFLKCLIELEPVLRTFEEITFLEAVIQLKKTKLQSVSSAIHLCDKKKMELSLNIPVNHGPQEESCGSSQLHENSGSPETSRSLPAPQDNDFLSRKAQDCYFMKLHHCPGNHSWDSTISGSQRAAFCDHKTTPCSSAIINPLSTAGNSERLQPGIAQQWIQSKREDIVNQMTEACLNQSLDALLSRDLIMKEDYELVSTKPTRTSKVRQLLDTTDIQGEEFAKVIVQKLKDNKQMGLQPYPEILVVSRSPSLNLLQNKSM

## Cc1nc(Nc2ncc(C(=O)Nc3c(C)cccc3Cl)s2)cc(N2CCN(CCO)CC2)n1 [dasatinib]
[1]
  DDA-MS / % Intensity (30 µM/DMSO): 9.795%
[2]
  DDA-MS / % Intensity (30 µM/DMSO): 1.02%
[3]
  DDA-MS / % Intensity (30 µM/DMSO): 1.947%
[4]
  DDA-MS / % Intensity (30 µM/DMSO): 4.526%
[5]
  DDA-MS / % Intensity (30 µM/DMSO): 2.68%
[6]
  DDA-MS / % Intensity (30 µM/DMSO): 2.183%
[7]
  DDA-MS / % Intensity (30 µM/DMSO): 2.041%
